# Measurements reported in patent US20220280661A1, “GLUCOCORTICOID RECEPTOR RADIOLIGANDS AND METHODS FOR THEIR PREPARATION AND USE” (The Regents of the University of California, priority 2019, published 2022).
# Target: T1, GR (Mus musculus, UniProt P06537)
# T1 construct: from tissue; host or cells: tissues of C57BL6/J mice (intact or adrenalectomized), in vivo
# T1 sequence (P06537 1-792): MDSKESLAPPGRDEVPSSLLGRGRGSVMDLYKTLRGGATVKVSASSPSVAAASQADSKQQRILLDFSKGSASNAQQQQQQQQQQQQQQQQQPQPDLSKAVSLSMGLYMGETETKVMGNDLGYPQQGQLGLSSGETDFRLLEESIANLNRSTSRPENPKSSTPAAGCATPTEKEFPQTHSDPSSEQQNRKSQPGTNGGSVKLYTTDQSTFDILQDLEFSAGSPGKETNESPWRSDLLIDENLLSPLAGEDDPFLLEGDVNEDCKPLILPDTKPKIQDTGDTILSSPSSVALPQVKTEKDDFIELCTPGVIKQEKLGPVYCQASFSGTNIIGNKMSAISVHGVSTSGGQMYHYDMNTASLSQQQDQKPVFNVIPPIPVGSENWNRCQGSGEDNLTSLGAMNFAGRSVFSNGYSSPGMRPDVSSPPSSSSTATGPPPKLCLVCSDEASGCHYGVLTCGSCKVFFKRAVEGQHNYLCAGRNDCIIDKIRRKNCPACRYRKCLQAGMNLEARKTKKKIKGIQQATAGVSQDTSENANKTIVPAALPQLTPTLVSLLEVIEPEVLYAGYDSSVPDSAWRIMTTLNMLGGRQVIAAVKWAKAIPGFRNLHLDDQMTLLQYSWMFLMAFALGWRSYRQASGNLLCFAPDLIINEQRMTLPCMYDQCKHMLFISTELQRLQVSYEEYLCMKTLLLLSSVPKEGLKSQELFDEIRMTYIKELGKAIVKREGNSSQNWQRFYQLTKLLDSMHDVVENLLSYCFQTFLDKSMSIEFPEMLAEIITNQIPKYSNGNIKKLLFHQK
# Experiment: 11C radiotracer biodistribution with dexamethasone or Dex-CD blocking
# Type: in vivo
# Conditions: 20 min after injection
# Method: Animal Studies. All animal experiments were performed under the approval of the Institutional Animal Care and Use Committee (IACUC) at UCSF. C57BL6/J mice (4-6 weeks) were purchased from Charles River. All the mice were housed in a dedicated vivarium with free access to food and water. […] Adrenalectomized mice were purchased from Charles River and provided drinking water supplemented with NaCl (aq) per instructions until the time of the tracer biodistribution study.
# Biodistribution Studies. Mice were euthanized after radiotracer (7.4-18.5 MBq in 100-150 μL) injection with CO2 (g) asphyxiation and dissected at dedicated time points post injection. The blood and tissues were collected, washed, dried, and weighed. The activity of each tissue was measured with a gamma counter. All data was decay corrected. PRISM software was used to express a percentage (% ID/g) of the injected dose per gram of tissue.
# The P value indicates the result of an unpaired, two-tailed Student's t test between the respective treatment group and vehicle (n=5/group).
# Table 10 summarizes biodistribution data collected 20 minutes after injection of ^11C-YJH02 among two treatment arms receiving vehicle or one intraperitoneal injection of the water-soluble dexamethasone-cyclodextrin complex at 10 mg/kg one hour prior to radiotracer administration. The P value indicates the result of an unpaired, two-tailed Student's t test between the respective treatment group and vehicle (n=5/group).
# [1] = mice given Dex-CD 10 mg/kg intraperitoneal one hour prior to radiotracer
# [2] = mice given dexamethasone 50 mg/kg via gavage once daily for three days
compound,measurement,setting,value
CC1=CC(C)(C)Nc2ccc3c(c21)C(Cc1ccc(F)cc1)Oc1cccc(O[11CH3])c1-3 (racemic) [(±)-^11C-YJH08],"radiotracer uptake, Adrenal",[1],5.67 ± 2.6 % ID/g
same,"radiotracer uptake, Blood",[1],3.72 ± 0.2 % ID/g
same,"radiotracer uptake, Bone",[1],1.95 ± 1.6 % ID/g
same,"radiotracer uptake, Brain",[1],1.40 ± 0.2 % ID/g
same,"radiotracer uptake, Brown Fat",[1],8.68 ± 2.4 % ID/g
same,"radiotracer uptake, Heart",[1],5.95 ± 0.7 % ID/g
same,"radiotracer uptake, Kidney",[1],4.11 ± 0.4 % ID/g
same,"radiotracer uptake, Lg. Int.",[1],1.38 ± 0.3 % ID/g
same,"radiotracer uptake, Liver",[1],12.47 ± 0.8 % ID/g
same,"radiotracer uptake, Lung",[1],5.09 ± 0.7 % ID/g
same,"radiotracer uptake, Muscle",[1],1.16 ± 0.2 % ID/g
same,"radiotracer uptake, Pancreas",[1],3.14 ± 0.3 % ID/g
same,"radiotracer uptake, Sm. Int.",[1],15.72 ± 3.2 % ID/g
same,"radiotracer uptake, Spleen",[1],5.72 ± 0.7 % ID/g
same,"radiotracer uptake, Stomach",[1],1.79 ± 0.8 % ID/g
same,"radiotracer uptake, Adrenal",[2],9.24 ± 3.6 % ID/g
same,"radiotracer uptake, Blood",[2],4.58 ± 1.9 % ID/g
same,"radiotracer uptake, Bone",[2],1.06 ± 0.4 % ID/g
same,"radiotracer uptake, Brain",[2],1.02 ± 0.3 % ID/g
same,"radiotracer uptake, Brown Fat",[2],4.58 ± 2.3 % ID/g
same,"radiotracer uptake, Heart",[2],3.86 ± 1.6 % ID/g
same,"radiotracer uptake, Kidney",[2],2.96 ± 0.9 % ID/g
same,"radiotracer uptake, Lg. Int.",[2],1.01 ± 0.5 % ID/g
same,"radiotracer uptake, Liver",[2],5.22 ± 2.7 % ID/g
same,"radiotracer uptake, Lung",[2],3.39 ± 1.6 % ID/g
same,"radiotracer uptake, Muscle",[2],0.84 ± 0.4 % ID/g
same,"radiotracer uptake, Pancreas",[2],1.52 ± 0.7 % ID/g
same,"radiotracer uptake, Sm. Int.",[2],30.24 ± 12.7 % ID/g
same,"radiotracer uptake, Spleen",[2],3.71 ± 1.5 % ID/g
same,"radiotracer uptake, Stomach",[2],0.71 ± 0.2 % ID/g
same,"radiotracer uptake, Adrenal",mice given vehicle,17.63 ± 2.9 % ID/g
same,"radiotracer uptake, Blood",mice given vehicle,4.82 ± 0.4 % ID/g
same,"radiotracer uptake, Bone",mice given vehicle,1.46 ± 0.5 % ID/g
same,"radiotracer uptake, Brain",mice given vehicle,1.98 ± 0.1 % ID/g
same,"radiotracer uptake, Brown Fat",mice given vehicle,9.52 ± 0.9 % ID/g
same,"radiotracer uptake, Heart",mice given vehicle,7.06 ± 0.8 % ID/g
same,"radiotracer uptake, Kidney",mice given vehicle,7.22 ± 0.8 % ID/g
same,"radiotracer uptake, Lg. Int.",mice given vehicle,1.70 ± 0.3 % ID/g
same,"radiotracer uptake, Liver",mice given vehicle,16.25 ± 0.8 % ID/g
same,"radiotracer uptake, Lung",mice given vehicle,6.80 ± 0.7 % ID/g
same,"radiotracer uptake, Muscle",mice given vehicle,1.85 ± 0.1 % ID/g
same,"radiotracer uptake, Pancreas",mice given vehicle,4.64 ± 0.1 % ID/g
same,"radiotracer uptake, Sm. Int.",mice given vehicle,28.72 ± 14.5 % ID/g
same,"radiotracer uptake, Spleen",mice given vehicle,7.28 ± 1.8 % ID/g
same,"radiotracer uptake, Stomach",mice given vehicle,2.62 ± 1.5 % ID/g
